From publication PMC6421105 (Bioorganic & medicinal chemistry, 2019)

What was measured:
T. cruzi (amastigotes) = assay: T. cruzi amastigote assay; assay type: cell-based, Trypanosoma cruzi; conditions: for IC50: Trypanosoma cruzi, Vero, 72 h, read-out: T. cruzi (amastigotes) ED50; for Antiparasitic activity against intracellular T. cruzi (in words): amastigotes
Vero cells = assay type: cell-based; conditions: for Cytotoxicity ED50: treatment for 72 h; for Cytotoxicity at 15 µM / Cytotoxicity at 20 µM: 72 h
intracellular T. cruzi = conditions: racemic mixture; cited from earlier work
[1] = tested on: mitochondrial and glycosomal TcSQS (wild type); conditions: membrane protein; cited from earlier work
truncated TcSQS = conditions: soluble enzyme cloned and expressed in Escherichia coli; cited from earlier work

## (2-(3-Phenoxyphenoxy)ethyl)(trifluoromethyl)sulfane [Compound 10]
T. cruzi (amastigotes); at 1.0 µM
  T. cruzi (amastigotes) % inhibition at 1.0 µM: 6.7%
Vero cells
  Cytotoxicity ED50: > 20 µM

## N#C[Se]CCOc1ccc([N+](=O)[O-])cc1 [Compound 22, 4-Nitrophenoxyethyl selenocyanate]
T. cruzi (amastigotes)
  IC50: 3.87 ± 1.3 µM
Vero cells
  Cytotoxicity at 15 µM: ^**cytotoxic at 20 µM, 15 µM
  Cytotoxicity at 20 µM: ^**cytotoxic at 20 µM, 15 µM

## N#C[Se]CCOc1ccccc1Oc1ccccc1 [Compound 43, 2-Phenoxyphenoxyethyl selenocyanate]
T. cruzi (amastigotes)
  IC50: > 10 µM
  Antiparasitic activity against intracellular T. cruzi (in words): free of anti-T. cruzi activity

## N#C[Se]CC1Cc2ccc(Oc3ccccc3)cc2O1 (racemic) [(±)-8]
T. cruzi (amastigotes)
  IC50: 0.0939 ± 0.025 µM
Intracellular T. cruzi
  ED50 against intracellular T. cruzi: 0.083 µM

## COc1ccc(OCC[Se]C#N)cc1 [Compound 20, 4-Methoxyphenoxyethyl selenocyanate]
T. cruzi (amastigotes)
  IC50: > 10 µM
T. cruzi (amastigotes); at 6 µM
  T. cruzi (amastigotes) inhibition at 6 µM: no inhibition
Vero cells
  Cytotoxicity at 15 µM: ^**cytotoxic at 20 µM, 15 µM
  Cytotoxicity at 20 µM: ^**cytotoxic at 20 µM, 15 µM

## O=C(Cn1ccnc1[N+](=O)[O-])NCc1ccccc1 [benznidazole, reference compound]
T. cruzi (amastigotes)
  IC50: 2.48 ± 0.45 µM

## (2-(4-Phenoxyphenoxy)ethyl)(trifluoromethyl)selane [Compound 11]
Vero cells
  Cytotoxicity ED50: > 20 µM

## N#CSCCOc1ccccc1Oc1ccccc1 [Compound 44, 2-Phenoxyphenoxyethyl thiocyanate]
T. cruzi (amastigotes)
  IC50: > 10 µM
  Antiparasitic activity against intracellular T. cruzi (in words): free of anti-T. cruzi activity

## N#CCCCOc1ccc(Oc2ccccc2)cc1 [Compound 14, 3-(4-Phenoxyphenoxy)propyl cyanide]
T. cruzi (amastigotes)
  IC50: > 10 µM
  Antiparasitic activity against intracellular T. cruzi (in words): inactive

## N#C[Se]CCOc1ccccc1 [Compound 21, Phenoxyethyl selenocyanate]
T. cruzi (amastigotes)
  IC50: > 10 µM
Vero cells
  Cytotoxicity at 20 µM: ^**cytotoxic at 20 µM

## FC(F)(F)SCCOc1ccc(Oc2ccccc2)cc1 [Compound 9, (2-(4-Phenoxyphenoxy)ethyl)(trifluoromethyl)sulfane]
T. cruzi (amastigotes)
  IC50: > 10 µM

## N#CCCOc1ccc(Oc2ccccc2)cc1 [Compound 13, 4-Phenoxyphenoxyethyl cyanide]
T. cruzi (amastigotes)
  IC50: > 10 µM
  Antiparasitic activity against intracellular T. cruzi (in words): inactive

## FC(F)(F)[Se]CCOc1cccc(Oc2ccccc2)c1 [Compound 12, (2-(3-Phenoxyphenoxy)ethyl)(trifluoromethyl)selane]
T. cruzi (amastigotes)
  IC50: > 1 µM

## N#CSCCOc1ccc(Oc2ccccc2)cc1 [WC-9, 4-Phenoxyphenoxyethyl Thiocyanate]
[1]
  Inhibition of TcSQS enzymatic activity (in words): non-competitive nanomolar inhibitor
Truncated TcSQS
  Inhibition of truncated TcSQS (in words): inactive
